According to patent US20260315492A1, “5,6-FUSED BICYCLIC AMIDES AND COMPOSITIONS FOR USE AS 15-PROSTAGLANDIN DEHYDROGENASE MODULATORS” (AMGEN INC., priority 2023, published 2026):

Target: T1, human recombinant 15-PGDH (Homo sapiens, UniProt P15428)
T1 sequence (P15428 1-266): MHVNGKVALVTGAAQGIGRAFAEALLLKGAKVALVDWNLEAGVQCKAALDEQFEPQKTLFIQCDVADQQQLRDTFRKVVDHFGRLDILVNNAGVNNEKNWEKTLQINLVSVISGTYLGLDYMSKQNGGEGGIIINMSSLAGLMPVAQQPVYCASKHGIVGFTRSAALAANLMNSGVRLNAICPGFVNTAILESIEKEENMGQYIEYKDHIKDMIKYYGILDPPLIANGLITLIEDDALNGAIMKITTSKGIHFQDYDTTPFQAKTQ
Test: Inhibition of recombinant 15-PGDH enzymatic activity (NADH quantification after addition of PGE2 and NAD+)
Format: biochemical
Conditions: recombinant 15-PGDH; 15 min pre-incubation, 60-minute reaction, room temperature, pH 7.5; PGE2 and NAD+; read-out: PGDH-Lumi IC50
Protocol: The compound dose-response of its inhibition of 15-PGDH activity was determined in human recombinant 15-PGDH enzymatical assays. These assays measured 15-PGDH enzymatic activity by quantifying the amount of NADH produced during a 60-minute reaction initiated by the addition of PGE2 and NAD+. Under the conditions of these experiments, the increase of NADH signal upon oxidation of PGE2 and reduction of NAD+ was linearly proportional to 15-PGDH enzymatic activity. The recombinant human, mouse, rat and dog 15-PGDH enzymatic assays were performed in a 25 μL volume of reaction buffer containing 50 mM Tris, pH 7.5, 0.01% Tween-20 and 100 μM DTT in a 384-well microtiter plate. In concentration-response experiments with tested compounds, 22 concentrations from 2-fold serial dilutions in DMSO were pre-incubated with 15-PGDH for 15 minutes at room temperature. Then, PGE2 and ß-NAD+ were added to initiate the 15-PGDH reaction. After 60 minutes at room temperature, the reaction was quenched and NADH signal was measured using a microtiter plate reader.
The following data (Table 11-1) provides the IC50 of each compound for inhibiting enzymatic activity of recombinant 15-PGDH in the assay described above.

SMILES | IC50
COCCN(C)C(=O)c1sc2cc(-c3cnc4nn(C)cc4c3)ccc2c1C [Compound A5, N-(2-methoxyethyl)-N,3-dimethyl-6-(2-methyl-2H-pyrazolo[3,4-b]pyridin-5-yl)-1-benzothiophene-2-carboxamide] | 87.8 nM
Cn1cc2cc(-c3cc(C4CCC4)c4c(N)c(C(=O)N5CCCCC5)sc4n3)cnc2n1 [Compound B5, (3-amino-4-cyclobutyl-6-(2-methyl-2H-pyrazolo[3,4-b]pyridin-5-yl)thieno[2,3-b]pyridin-2-yl)(1-piperidinyl)methanone] | 0.255 nM
O=C(c1cc2ccc(-c3cnc4nccnc4c3)nc2s1)N1CCOCC1 [Compound B56, 4-morpholinyl(6-(pyrido[2,3-b]pyrazin-7-yl)thieno[2,3-b]pyridin-2-yl)methanone] | 5.91 nM
Cn1nccc1-c1nc(-c2cnc(=O)[nH]c2)nc2sc(C(=O)N3CCC(F)(F)CC3)cc12 [Compound C38, 5-(6-((4,4-difluoro-1-piperidinyl)carbonyl)-4-(1-methyl-1H-pyrazol-5-yl)thieno[2,3-d]pyrimidin-2-yl)-2(1H)-pyrimidinone] | 16 nM
Cn1cc2cc(-c3cc(C4CC4)c4cc(C(=O)N5CCCCC5)sc4n3)cnc2n1 [Compound B23, (4-cyclopropyl-6-(2-methyl-2H-pyrazolo[3,4-b]pyridin-5-yl)thieno[2,3-b]pyridin-2-yl)(1-piperidinyl)methanone] | 0.215 nM
Cn1cc2cc(-c3cnc4sc(C(=O)N5CCC(F)(F)CC5)cc4n3)cnc2n1 [Compound C40, (4,4-difluoro-1-piperidinyl)(2-(2-methyl-2H-pyrazolo[3,4-b]pyridin-5-yl)thieno[2,3-b]pyrazin-6-yl)methanone] | 0.726 nM
C[C@H]1COCCN1C(=O)c1cc2ccc(-c3cnc4c(=O)n(C)ccc4c3)nc2s1 [Compound B62S, 7-methyl-3-(2-(((3S)-3-methyl-4-morpholinyl)carbonyl)thieno[2,3-b]pyridin-6-yl)-1,7-naphthyridin-8(7H)-one] | 39.2 nM
C[C@H]1COCCN1C(=O)c1sc2nc(-c3cnc4nn(C)cc4c3)cc(C3CCC3)c2c1N [Compound B6S, (3-amino-4-cyclobutyl-6-(2-methyl-2H-pyrazolo[3,4-b]pyridin-5-yl)thieno[2,3-b]pyridin-2-yl)((3S)-3-methyl-4-morpholinyl)methanone] | 0.554 nM
C[C@H]1COCCN1C(=O)c1cc2c(C3CC3)cc(-c3cnc4nn(C)cc4c3)nc2s1 [Compound B17S, (4-cyclopropyl-6-(2-methyl-2H-pyrazolo[3,4-b]pyridin-5-yl)thieno[2,3-b]pyridin-2-yl)((3S)-3-methyl-4-morpholinyl)methanone] | 1.17 nM
Cn1cc2cc(-c3cc(-c4ccnn4C)c4cc(C(=O)N5CCSCC5)sc4n3)cnc2n1 [Compound B14, (6-(2-methyl-2H-pyrazolo[3,4-b]pyridin-5-yl)-4-(1-methyl-1H-pyrazol-5-yl)thieno[2,3-b]pyridin-2-yl)(4-thiomorpholinyl)methanone] | 0.519 nM
Cn1cc2cc(-c3ccc4nc(C(=O)N5CCOCC5)sc4n3)cnc2n1 [Compound C51, (5-(2-methyl-2H-pyrazolo[3,4-b]pyridin-5-yl)[1,3]thiazolo[5,4-b]pyridin-2-yl)(4-morpholinyl)methanone] | 17.9 nM
Cc1c(C(=O)N2CCOC(C)(C)C2)sc2cc(-c3cnc4nn(C)cc4c3)ccc12 [Compound A6, (2,2-dimethyl-4-morpholinyl)(3-methyl-6-(2-methyl-2H-pyrazolo[3,4-b]pyridin-5-yl)-1-benzothiophen-2-yl)methanone] | 185 nM
C[C@H]1COCCN1C(=O)c1cc2ccc(-c3nccs3)nc2s1 [Compound B33S, ((3S)-3-methyl-4-morpholinyl)(6-(1,3-thiazol-2-yl)thieno[2,3-b]pyridin-2-yl)methanone] | 2650 nM
C[C@H]1COCCN1C(=O)c1cc2ccc(-c3cnc4ncn(C)c4c3)nc2s1 [Compound B63S, (6-(1-methyl-1H-imidazo[4,5-b]pyridin-6-yl)thieno[2,3-b]pyridin-2-yl)((3S)-3-methyl-4-morpholinyl)methanone] | 5.68 nM
CC1CC(F)(F)CCN1C(=O)c1cc2ccc(-c3cnc4nn(C)cc4c3)nc2s1 (single isomer, unassigned) [Compound B27R] | 1.51 nM
Cn1cc2cc(-c3ccc4sc(C(=O)N5CCOCC5)cc4n3)cnc2n1 [Compound C44, (5-(2-methyl-2H-pyrazolo[3,4-b]pyridin-5-yl)thieno[3,2-b]pyridin-2-yl)(4-morpholinyl)methanone] | 4.51 nM

SMILES | IC50
C[C@@H]1COCCN1C(=O)c1cc2ccc(-c3cnc4nccnc4c3)nc2s1 [Compound B60R, ((3R)-3-methyl-4-morpholinyl)(6-(pyrido[2,3-b]pyrazin-7-yl)thieno[2,3-b]pyridin-2-yl)methanone] | 10.6 nM
Cn1cc2cc(-c3ccc4cc(C(=O)N5CCOC(C)(C)C5)sc4n3)cnc2n1 [Compound B40, (2,2-dimethyl-4-morpholinyl)(6-(2-methyl-2H-pyrazolo[3,4-b]pyridin-5-yl)thieno[2,3-b]pyridin-2-yl)methanone] | 1.97 nM
CN(C(=O)c1cc2c(C3CC3)cc(-c3cnc4nn(C)cc4c3)nc2s1)C1CCC1 [Compound B15, N-cyclobutyl-4-cyclopropyl-N-methyl-6-(2-methyl-2H-pyrazolo[3,4-b]pyridin-5-yl)thieno[2,3-b]pyridine-2-carboxamide] | 0.475 nM
C[C@H]1COCCN1C(=O)c1cc2ccc(-c3cnc4nn(C)cc4c3)nc2s1 [Compound B9S, ((3S)-3-methyl-4-morpholinyl)(6-(2-methyl-2H-pyrazolo[3,4-b]pyridin-5-yl)thieno[2,3-b]pyridin-2-yl)methanone] | 5.05 nM
Cn1cc2cc(-c3ccc4cc(C(=O)N5CCC(C(F)(F)F)CC5)sc4n3)cnc2n1 [Compound B21, (6-(2-methyl-2H-pyrazolo[3,4-b]pyridin-5-yl)thieno[2,3-b]pyridin-2-yl)(4-(trifluoromethyl)-1-piperidinyl)methanone] | 1.45 nM
C[C@@H]1COCCN1C(=O)c1cc2ccc(-c3nccs3)nc2s1 [Compound B33R, ((3R)-3-methyl-4-morpholinyl)(6-(1,3-thiazol-2-yl)thieno[2,3-b]pyridin-2-yl)methanone] | 4400 nM
Cc1c(C(=O)N2CCOCC2)sc2cc(-c3cnc4nn(C)cc4c3)ccc12 [Compound A2, (3-methyl-6-(2-methyl-2H-pyrazolo[3,4-b]pyridin-5-yl)-1-benzothiophen-2-yl)(4-morpholinyl)methanone] | 163 nM
Cn1cc2cc(-c3ccc4sc(C(=O)N5CCCCC5)cc4n3)cnc2n1 [Compound C42, (5-(2-methyl-2H-pyrazolo[3,4-b]pyridin-5-yl)thieno[3,2-b]pyridin-2-yl)(1-piperidinyl)methanone] | 0.394 nM
Cn1cc2cc(-c3cc(C4CC4)c4cc(C(=O)N5CCOCC5)sc4n3)cnc2n1 [Compound B10, (4-cyclopropyl-6-(2-methyl-2H-pyrazolo[3,4-b]pyridin-5-yl)thieno[2,3-b]pyridin-2-yl)(4-morpholinyl)methanone] | 0.917 nM
C[C@@H]1COCCN1C(=O)c1cc2ccc(-c3ccc(=O)[nH]c3)nc2s1 [Compound B48R, 5-(2-(((3R)-3-methyl-4-morpholinyl)carbonyl)thieno[2,3-b]pyridin-6-yl)-2(1H)-pyridinone] | 1030 nM
C[C@H]1COCCN1C(=O)c1nc2ccc(-c3cnc4nn(C)cc4c3)nc2s1 [Compound C52S, ((3S)-3-methyl-4-morpholinyl)(5-(2-methyl-2H-pyrazolo[3,4-b]pyridin-5-yl)[1,3]thiazolo[5,4-b]pyridin-2-yl)methanone] | 25.7 nM
CO[C@H]1CCCN(C(=O)c2sc3cc(-c4cnc5nn(C)cc5c4)ccc3c2C)C1 [Compound A7S, ((3S)-3-methoxy-1-piperidinyl)(3-methyl-6-(2-methyl-2H-pyrazolo[3,4-b]pyridin-5-yl)-1-benzothiophen-2-yl)methanone] | 66.4 nM
C[C@@H]1COCCN1C(=O)c1nc2ccc(-c3cnc4nn(C)cc4c3)nc2s1 [Compound C52R, ((3R)-3-methyl-4-morpholinyl)(5-(2-methyl-2H-pyrazolo[3,4-b]pyridin-5-yl)[1,3]thiazolo[5,4-b]pyridin-2-yl)methanone] | 17 nM
C[C@@H]1COCCN1C(=O)c1cc2ccc(-c3cnc4ncn(C)c4c3)nc2s1 [Compound B63R, (6-(1-methyl-1H-imidazo[4,5-b]pyridin-6-yl)thieno[2,3-b]pyridin-2-yl)((3R)-3-methyl-4-morpholinyl)methanone] | 5.17 nM
CC(C)c1cc[n+]([O-])c2sc(C(=O)N3CCCCC3)cc12 [Compound B7, (7-oxido-4-(2-propanyl)thieno[2,3-b]pyridin-2-yl)(1-piperidinyl)methanone] | > 100000 nM
C[C@H]1COCCN1C(=O)c1cc2ccc(-c3cc(=O)n(C)cn3)nc2s1 [Compound B34S, 3-methyl-6-(2-(((3S)-3-methyl-4-morpholinyl)carbonyl)thieno[2,3-b]pyridin-6-yl)-4(3H)-pyrimidinone] | 200 nM
